BindingDB's records for doi:10.1021/acs.jmedchem.7b01708 (Duquesne University, 2018)

Columns and labels:
[1] = Binding affinity to human FR-beta receptor expressed in Chinese hamster D4 cells assessed as antiproliferative activity measured as reduction in cell viability after 96 hrs by Cell-Titer Blue assay
[2] = Binding affinity to human FR-alpha receptor expressed in Chinese hamster RT16 cells assessed as antiproliferative activity measured as reduction in cell viability after 96 hrs in presence of folic acid by Cell-Titer Blue assay
[3] = Binding affinity to human RFC expressed in Chinese hamster PC43-10 cells assessed as antiproliferative activity measured as reduction in cell viability after 96 hrs by Cell-Titer Blue assay
[4] = Binding affinity to human FR-alpha receptor expressed in Chinese hamster RT16 cells assessed as antiproliferative activity measured as reduction in cell viability after 96 hrs by Cell-Titer Blue assay
[5] = Binding affinity to human PCFT expressed in Chinese hamster R2/PCFT4 cells assessed as antiproliferative activity measured as reduction in cell viability after 96 hrs by Cell-Titer Blue assay
[6] = Binding affinity to human FR-beta receptor expressed in Chinese hamster D4 cells assessed as antiproliferative activity measured as reduction in cell viability after 96 hrs in presence of folic acid by Cell-Titer Blue assay

Compound	IC50 [1] [nM]	IC50 [2] [nM]	IC50 [3] [nM]	IC50 [4] [nM]	IC50 [5] [nM]	IC50 [6] [nM]
Nc1nc2[nH]c(CCC#Cc3ccc(C(=O)N[C@@H](CCC(=O)O)C(=O)O)cn3)cc2c(=O)[nH]1	839	> 1000	> 1000	449	> 1000	> 1000
Nc1nc2[nH]c(CCCCc3ccc(C(=O)N[C@@H](CCC(=O)O)C(=O)O)cn3)cc2c(=O)[nH]1	37	> 1000	> 1000	15	> 1000	> 1000
Nc1nc2[nH]c(CCC#Cc3ccc(C(=O)N[C@@H](CCC(=O)O)C(=O)O)nc3)cc2c(=O)[nH]1	19	> 1000	> 1000	4.4	> 1000	> 1000
Nc1nc2[nH]c(CCCCc3cccc(C(=O)N[C@@H](CCC(=O)O)C(=O)O)n3)cc2c(=O)[nH]1	> 1000	> 1000	> 1000	186	–	> 1000
Nc1nc2[nH]c(CCCCc3ccc(C(=O)N[C@@H](CCC(=O)O)C(=O)O)nc3)cc2c(=O)[nH]1	–	–	> 1000	–	58	–
Nc1nc2[nH]c(CCC#Cc3cccc(C(=O)N[C@@H](CCC(=O)O)C(=O)O)n3)cc2c(=O)[nH]1	> 1000	> 1000	> 1000	> 1000	> 1000	> 1000
C#CCC(Cc1cnc2nc(N)nc(N)c2n1)c1ccc(C(=O)N[C@@H](CCC(=O)O)C(=O)O)cc1 (stereo partly specified) [CHEBI:71223]	–	> 1000	0.69	168	57	–
Nc1nc2[nH]c(CCCCc3ccc(C(=O)N[C@@H](CCC(=O)O)C(=O)O)cc3)cc2c(=O)[nH]1 [N-{4-[4-(2-Amino-4-oxo-4,7-dihydro-3H-pyrrolo[2,3-d]pyrimidin-6-yl)butyl]benzoyl}-L-glutamic Acid]	–	–	> 1000	–	–	–
